# Data reported in patent US20160166572A1, “BENEFICIAL EFFECTS OF Lp-PLA2 INHIBITORS IN TREATMENT OF DIABETIC RETINOPATHY AND AGE-RELATED MACULAR DEGENERATION” (Rowan University, priority 2014, published 2016).
# Experiments:
# occludin = experiment: Occludin protein expression in BVECs of cerebral cortex (IHC, MATLAB), DMHC pigs; format: in vivo, pig; conditions: Darapladib 10 mg/kg/d orally, 24 weeks
# Protocol: Briefly, after induction of diabetes by a single injection of Streptozotocin, animals were fed a high cholesterol diet. After a month of DMHC induction and acclimation, animals were randomly segregated to untreated DMHC and Darapladib-treated DMHC groups. Darapladib-treated pigs received 10 mg/kg/d of Darapladib orally. Three of the pigs were spared from DMHC induction and served as age-matched, non-DMHC normal controls. Twenty four weeks after acclimation, animals were euthanized and their brains and eyes were immediately removed. Brains were divided anteroposteriorly into anterior, middle and posterior regions. For each of these brain regions, 2-3 tissue blocks were generated for routine tissue fixation (10% formalin) or freezing and histological processing. The anterior cortical region comprised of anterior 2⁄3 of frontal lobe and anterior 1⁄3 of temporal lobe. The middle cortical region contained mid 1⁄3 of temporal lobe and anterior 1⁄2 of the parietal lobe. The posterior cortex included the posterior 1⁄2 of the parietal lobe, posterior 1⁄3 of the temporal lobe and the occipital lobe. Eyes were dissected longitudinally to sever the retina at the optic nerve. The sections were fixed in 10% formalin and embedded as flattened disc in paraffin. The tissue samples were processed using routine histology techniques. Standard Hematoxylin & Eosin (H&E) staining (FIG. 1) was carried out in retinal sections. […] Extravasated IgG was detected using biotinylated anti-swine IgG antibody (Vector laboratories, Inc., Catalogue # BA-9020; dilution 1:100). […] Slides were examined and photographed with a Nikon FXA microscope, and digital images were recorded using a Nikon DXM1200F digital camera and analyzed using MATLAB (MathWorks, Mass., USA) and NIS-elements software (Nikon, Melville, N.Y.). […] Claudin5 and occludin protein expression in pig cerebral cortex was evaluated semi-quantitatively using IHC by taking images at five random locations as described previously. Images were analyzed using MATLAB (MathWorks, Mass., USA). […]
# porcine retina = experiment: Cell number in retinal GCL and INL by counting DAPI-positive nuclei, DMHC pigs; format: in vivo, pig; conditions: Darapladib 10 mg/kg/d orally, 24 weeks, FIG. 3D-E
# Protocol: Briefly, after induction of diabetes by a single injection of Streptozotocin, animals were fed a high cholesterol diet. After a month of DMHC induction and acclimation, animals were randomly segregated to untreated DMHC and Darapladib-treated DMHC groups. Darapladib-treated pigs received 10 mg/kg/d of Darapladib orally. Three of the pigs were spared from DMHC induction and served as age-matched, non-DMHC normal controls. Twenty four weeks after acclimation, animals were euthanized and their brains and eyes were immediately removed. Brains were divided anteroposteriorly into anterior, middle and posterior regions. For each of these brain regions, 2-3 tissue blocks were generated for routine tissue fixation (10% formalin) or freezing and histological processing. The anterior cortical region comprised of anterior ⅔ of frontal lobe and anterior ⅓ of temporal lobe. […] Cells positive for GFAP were counted throughout the whole thickness of the retina, and then quantified using ImagePro7.0 (Media Cybernetics, Silver Spring, Md.). Briefly, a 300×300 pixel square area was randomly made in each retinal section in three contiguous locations across the retina and the positive GFAP area was determined per total area using a fixed threshold. […] Cell number was determined by counting the DAPI-positive nuclei in a fixed area. […]
smiles,measurement,setting,value
CCN(CC)CCN(Cc1ccc(-c2ccc(C(F)(F)F)cc2)cc1)C(=O)Cn1c(SCc2ccc(F)cc2)nc(=O)c2c1CCC2 [Darapladib],"occludin protein expression, middle cortex",occludin; FIG. 7E,comparable levels of occludin expression
same,"occludin protein expression, anterior cortex","occludin; rank among treatment groups, FIG. 7D",highest level of occludin expression
same,"occludin protein expression, posterior cortex","occludin; rank among treatment groups, FIG. 7F",lowest expression
same,cell number (nuclei) in GCL,porcine retina,comparable to controls
same,cell number (nuclei) in INL,porcine retina,comparable to controls
